Laboratory results published in US20230372356A1, “CLOMIPRAMINE FOR THE TREATMENT OF ALZHEIMER'S DISEASE” (National Institute of Immunology, priority 2022, published 2023).

How the values were obtained:
[1] = tested on: Aβ42-treated cortical neurons; test: Western blot of lysates of Aβ42-treated rat cortical neurons treated with clomipramine; assay type: cell-based; details: for cell cycle related neuronal apoptosis by immunoblotting (PCNA, cleaved caspase-3): 48 h (FIGS. 3D-3F)
From the text: The effect of clomipramine on cell cycle related neuronal apoptosis (CRNA) was investigated in Aβ42-treated cortical neurons (Aβ42 peptide induces neurodegeneration in AD patients). The TAp73 levels were restored upon clomipramine treatment (FIG. 1A). […] FIGS. 1B, 1C, and 1D show the quantification of TAp73, PCNA, and cleaved caspase-3 levels of the Western blot of FIG. 1A.
To determine an effective concentration of clomipramine, Aβ42 treated rat cortical neurons were subjected to different concentrations (10 nM to 100 nM) of clomipramine for 48 h. Lysates were prepared and immunoblotting was performed.
After 48 h, one set of cells were lysed, lysates were prepared and the lysates were subjected to immunoblotting.

[2] = tested on: AD transgenic mouse model (Tg) cortical neurons; test: Western blot of cortical neuron lysate from AD transgenic mouse model (Tg) treated with clomipramine; assay type: cell-based; details: Western blot (FIG. 2A)
From the text: The effect of clomipramine on cell cycle related neuronal apoptosis (CRNA) was also explored in AD transgenic mouse model (Tg) cortical neurons (in this mouse model, there is an increased production of Aβ42 which induces neurodegeneration similar to AD patients).

[3] = tested on: TAp73; test: Immunoprecipitation of TAp73 and ubiquitination blot in presence of proteasome inhibitor MG132; assay type: cell-based, rat; details: TAp73 immunoprecipitated in presence of MG132 (FIG. 2B)
[4] = tested on: Aβ42 treated cortical neurons; test: BrdU incorporation / TUNEL labelling of Aβ42-treated cortical neurons; assay type: cell-based, rat
Method: Subsequently, BrdU incorporation and TUNEL labelling was performed to detect DNA replication and apoptosis, respectively. […] These findings indicate that clomipramine inhibits CRNA in AD neurons by preventing TAp73 degradation.
To another set of cells, BrdU was added after 48 h to label the neurons undergoing the replication (cell cycle re-entry). After that TUNEL assay was performed to label the cells undergoing apoptosis (FIG. 3G). The number of double positive cells were scored and plotted in the graph (FIG. 3H).

[5] = tested on: APP/PS1 transgenic (TgAD) mouse model for AD; test: Morris water maze test in TgAD mice; assay type: in vivo; details: 25 mg/kg I.P. for 45 days
Method: (§1) Next, the effect of clomipramine was tested in an in vivo mouse model of AD. For this, Amyloid Precursor Protein (APP)/Presenillin 1 (PS1) transgenic (TgAD) mouse model for AD (strain name B6C3-Tg APPswe, PSEN1dE9 85Dboa; stock number 004462) was used. Wild type and transgenic (TgAD) mice were genotyped using genomic DNA isolated from mouse tail and PCR primers according to the Jackson laboratory protocol. Clomipramine hydrochloride, obtained from Sigma (C-7291), was dissolved in ultrapure MQ just before the injection and 100 μl of this solution was injected intraperitonially (I.P.injections) to each mouse of 23-25 g in weight (25 mg/kg body weight) for 45 days. Various behaviour tests (Morris water maze, Y-maze and Radial arm maze) were performed on clomipramine/saline injected mice.
For Morris water maze test, animals were subjected to three trials per session and one session a day, for five days. Each trial was for 60 s in which mice had to reach the hidden platform in the water, and the average time per session was recorded as escape latency. After the escape training, the platform was removed for the probe trial test. It tested the retention of spatial memory at 24 h after training (Vorhees and Williams 2006, Nunez 2008). The number of times a mouse crossed the probe, the time spent in the target quadrant, and swim speed were recorded using ANY-maze software (Stoelting Co., USA).
For in vivo studies, ˜6 months old WT/TgAD mice were intraperitonially injected with 25 mg/kg body weight of clomipramine for 45 days (FIG. 4A) and subjected to various behavior tests. […] After five days of training, probe trial was performed and observed that WT mice spent […] time searching for the platform in the area of previous location (target quadrant) than the TgAD reflected by FIG. 5B. […] These observations indicate improved spatial learning in TgAD mice upon clomipramine treatment.

[6] = tested on: APP/PS1 transgenic (TgAD) mouse model for AD; test: Y-maze test in TgAD mice; assay type: in vivo
Method: as §1
For Y-Maze test, animals were habituated in the Y-shaped maze for 3 min with one of the arms blocked then their spontaneous alternations were recorded with all arms open for 5 min (Miedel, Patton et al. 2017). The number of alternations was recorded manually and percent spontaneous alternations were calculated as mentioned below: […]
Y-maze test is an initial test of memory function. […] The memory function was tested when the animal was returned to the maze with all arms open and the tendency to spend time in the new or familiar arms was monitored.

[7] = tested on: APP/PS1 transgenic (TgAD) mouse model for AD; test: Radial arm (8-arm) maze test in TgAD mice; assay type: in vivo
Method: as §1, with “Various behaviour tests (Morris water maze, Y-maze and Radial arm maze) were performed on clomipramine/saline injected mice.” left out
For radial arm (8-arm) maze test, mice were given restricted amount of food until their bodyweight reduced to 85% of the initial weight for two days prior to habituation in the maze. […] On the test day, all arms were opened and same five arms were baited as in trial sessions and their series of entries were recorded manually (Miyakawa, Yamada et al. 2001), from which the percentage of working and reference memory errors were calculated. The mouse entering an arm containing food where it had previously entered, was counted as working memory error (short term memory) and if the mouse entered in an arm without bait, was counted as reference memory error (long term memory for position of the baited arms). […]

[8] = Tolerability of chronic clomipramine treatment in WT/TgAD mice; assay type: in vivo, mouse
Method: as §1
Radial arm maze test was also performed to assess the long term as well as short term memory of mice (Penley, Gaudet et al. 2013, Fredriksson, Sreedharan et al. 2019). For this purpose, the 24 h food deprived mice were placed on the central platform of 8-arm maze and allowed to explore the maze for food (bait) placed at the end of each arm as depicted in FIG. 8A. Each training/testing session was 10 min long. […] TgAD mice group committed more reference and working memory errors than WT.

[9] = tested on: TgAD cortex; test: Western blot of cortex region of brain of clomipramine-treated TgAD mice; assay type: in vivo, mouse
Method: The animals used in the above-mentioned behavioral tests were euthanized and cortex region of brain was dissected out for biochemical analysis. The levels of Itch, TAp73, PCNA and cleaved caspase-3 were determined with Western blotting (FIG. 9A). FIGS. 9B-9F show the quantification of the levels of Itch, TAp73, PCNA and cleaved caspase-3 of the Western blot of FIG. 9A. After analysis of six animals from each group, it was observed that TAp73 protein levels, which were reduced in TgAD cortex, were much higher in clomipramine treated TgAD brains. […] Importantly, CRNA which is exacerbated in TgAD cortex was reversed in clomipramine-treated mice as indicated by decrease in PCNA and cleaved caspase 3 (FIG. 9A).

[10] = 4 groups of mice treated with clomipramine and saline, 25 mg/kg I.P. 45 days
[11] = TgAD mice, 25 mg/kg I.P. 45 days (FIG. 9A)

CN(C)CCCN1c2ccccc2CCc2ccc(Cl)cc21 [clomipramine]
cell cycle related neuronal apoptosis by immunoblotting (PCNA, cleaved caspase-3) ([1]; 75 nM clomipramine): effective in reducing cell cycle related neuronalapoptosis
TAp73 levels ([1]; 75 nM clomipramine, 48 h, tested 10 nM to 100 nM (FIG. 3C)): restoration in TAp73 levels was observed
cell cycle related neuronal apoptosis by immunoblotting (PCNA, cleaved caspase-3) ([1]; 100 nM clomipramine): more apoptosis was observed
TAp73 levels ([1]; 100 nM clomipramine, 48 h, tested 10 nM to 100 nM (FIG. 3C)): restoration in TAp73 levels was observed
TAp73 levels ([1]; Aβ42-treated cortical neurons, Western blot (FIG. 1A, 1B)): restored
PCNA (cell cycle re-entry) ([1]; Aβ42-treated cortical neurons, Western blot (FIG. 1A, 1C)): significant decrease
cleaved caspase 3 (apoptosis) ([1]; Aβ42-treated cortical neurons, Western blot (FIG. 1A, 1D)): significant decrease
PCNA (cell cycle re-entry) [2]: significant decrease
TAp73 levels [2]: restored
cleaved caspase 3 (apoptosis) [2]: significant decrease
ubiquitination of TAp73 [3]: less ubiquitination of TAp73
BrdU/TUNEL double positive cells (CRNA) ([4]; 75 nM compared with 100 nM clomipramine, 48 h (FIGS. 3G, 3H)): more potent in preventing CRNA
BrdU+/TUNEL+ cells (CRNA) ([4]; Aβ42 treated cortical neurons (FIGS. 3A, 3B)): significant reduction
Morris water maze: time to reach the hidden platform (escape latency) ([5]; five days of training (FIG. 4B)): marked improvement
Morris water maze: escape latency on the last day of training ([5]; last day (FIGS. 4B, 4C, 5A)): almost similar to the WT mice
Morris water maze probe trial: crossing of target quadrant area ([5]; platform removed (FIG. 5B)): more frequently, almost similar to WT mice
Y-maze spontaneous alternation ([6]; TgAD mice, 25 mg/kg I.P. for 45 days, compared to TgAD): improvement of spontaneous alternation
Y-maze total number of arm entries ([6]; all groups, 25 mg/kg I.P. for 45 days (FIG. 7C)): no significant changes
Radial arm maze reference memory errors (long term memory) ([7]; 25 mg/kg I.P. for 45 days (FIG. 8B)): significant improvement
Radial arm maze working memory errors (short term memory) ([7]; 25 mg/kg I.P. for 45 days (FIG. 8C)): significant improvement
food intake [8, 10]: No significant differences
water intake [8, 10]: No significant differences
side effects of chronic treatment ([8]; mice, 25 mg/kg I.P. for 45 days): no major side effects
swimming speed ([8]; wild-type mice, clomipramine vs saline (FIG. 6A), p>0.05): almost unchanged
body weight ([8]; wild-type mice, clomipramine vs saline (FIG. 6B), p>0.05): almost unchanged
learning and memory abilities ([8]; wild-type mice, clomipramine vs saline, p>0.05): almost unchanged
TAp73 protein levels in cortex ([9]; TgAD brains, 25 mg/kg I.P. 45 days, six animals per group (FIGS. 9A, 9B)): much higher
PCNA in cortex (CRNA) [9, 11]: decrease
cleaved caspase 3 in cortex (CRNA) [9, 11]: decrease
